Columns and labels:
Assay type in all cases: cell-based
human TLR7 = molecular target: T1, human TLR7 (Homo sapiens, UniProt Q9NYK1); assay: TLR7 inhibition reporter assay (HEK-Blue cells, SEAP reporter, gardiquimod stimulation); conditions: HEK-Blue cells overexpressing human TLR7, SEAP reporter, gardiquimod 7.5 μM
T1 construct: host or cells: HEK-Blue cells
T1 sequence (Q9NYK1 27-1049): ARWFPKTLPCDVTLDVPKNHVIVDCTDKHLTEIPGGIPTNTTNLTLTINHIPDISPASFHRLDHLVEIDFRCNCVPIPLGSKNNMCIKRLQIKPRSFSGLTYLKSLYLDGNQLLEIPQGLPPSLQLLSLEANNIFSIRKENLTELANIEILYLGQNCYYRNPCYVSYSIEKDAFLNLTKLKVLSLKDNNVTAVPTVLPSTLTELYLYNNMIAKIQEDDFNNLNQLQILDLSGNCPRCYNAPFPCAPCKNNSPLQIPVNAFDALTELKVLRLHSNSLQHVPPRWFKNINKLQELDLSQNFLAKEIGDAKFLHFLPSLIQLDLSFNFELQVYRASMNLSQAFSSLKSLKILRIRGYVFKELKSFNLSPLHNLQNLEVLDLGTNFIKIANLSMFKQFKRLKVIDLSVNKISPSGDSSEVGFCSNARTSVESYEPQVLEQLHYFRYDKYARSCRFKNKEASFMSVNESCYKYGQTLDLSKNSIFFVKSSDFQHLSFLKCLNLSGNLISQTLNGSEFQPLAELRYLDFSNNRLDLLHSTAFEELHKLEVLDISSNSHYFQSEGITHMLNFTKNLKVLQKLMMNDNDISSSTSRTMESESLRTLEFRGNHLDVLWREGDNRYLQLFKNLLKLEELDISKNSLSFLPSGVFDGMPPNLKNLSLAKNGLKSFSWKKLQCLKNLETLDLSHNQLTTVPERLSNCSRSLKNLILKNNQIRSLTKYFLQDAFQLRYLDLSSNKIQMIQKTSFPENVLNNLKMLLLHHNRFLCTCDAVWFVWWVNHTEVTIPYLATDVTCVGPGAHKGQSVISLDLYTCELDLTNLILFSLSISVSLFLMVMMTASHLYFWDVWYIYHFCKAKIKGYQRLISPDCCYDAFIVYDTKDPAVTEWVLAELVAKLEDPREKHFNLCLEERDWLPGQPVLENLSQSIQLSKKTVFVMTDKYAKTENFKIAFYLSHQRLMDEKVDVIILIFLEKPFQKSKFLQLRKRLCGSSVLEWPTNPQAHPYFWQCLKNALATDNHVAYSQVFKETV
Method: (§1) TLR7/8/9 Inhibition Reporter Assays
(§2) HEK-Blue™-cells (Invivogen) overexpressing human TLR7, TLR8 or TLR9 receptors were used for screening inhibitors of these receptors using an inducible SEAP (secreted embryonic alkaline phosphatase) reporter gene under the control of the IFN-β minimal promoter fused to five NF-κB and AP-1-binding sites. Briefly, cells are seeded into Greiner 384 well plates (15000 cells per well for TLR7, 20,000 for TLR8 and 25,000 for TLR9) and then treated with test compounds in DMSO to yield a final dose response concentration range of 0.05 nM-50 μM. After a 30 minute compound pre-treatment al room temperature, the cells are then stimulated with a TLR7 ligand (gardiquimod at a final concentration of 7.5 μM), TLR8 ligand (R848 at a final concentration of 15.9 μM) or TLR9 ligand (ODN2006 at a final concentration of 5 nM) to activate NF-κB and AP-1 which induce the production of SEAP. After a 22 hour incubation at 37° C., 5% CO2, SEAP levels are determined with the addition of HEK-Blue™ Detection reagent (Invivogen), a cell culture medium that allows for detection of SEAP, according to manufacturer's specifications. The percent inhibition is determined as the % reduction in the HEK-Blue signal present in wells treated with agonist plus DMSO alone compared to wells treated with a known inhibitor.

human TLR8 = molecular target: T2, human TLR8 (Homo sapiens, UniProt Q9NR97); assay: TLR8 inhibition reporter assay (HEK-Blue cells, SEAP reporter, R848 stimulation); conditions: HEK-Blue cells overexpressing human TLR8, SEAP reporter, R848 15.9 μM
T2 construct: host or cells: HEK-Blue cells
T2 sequence (Q9NR97 27-1041): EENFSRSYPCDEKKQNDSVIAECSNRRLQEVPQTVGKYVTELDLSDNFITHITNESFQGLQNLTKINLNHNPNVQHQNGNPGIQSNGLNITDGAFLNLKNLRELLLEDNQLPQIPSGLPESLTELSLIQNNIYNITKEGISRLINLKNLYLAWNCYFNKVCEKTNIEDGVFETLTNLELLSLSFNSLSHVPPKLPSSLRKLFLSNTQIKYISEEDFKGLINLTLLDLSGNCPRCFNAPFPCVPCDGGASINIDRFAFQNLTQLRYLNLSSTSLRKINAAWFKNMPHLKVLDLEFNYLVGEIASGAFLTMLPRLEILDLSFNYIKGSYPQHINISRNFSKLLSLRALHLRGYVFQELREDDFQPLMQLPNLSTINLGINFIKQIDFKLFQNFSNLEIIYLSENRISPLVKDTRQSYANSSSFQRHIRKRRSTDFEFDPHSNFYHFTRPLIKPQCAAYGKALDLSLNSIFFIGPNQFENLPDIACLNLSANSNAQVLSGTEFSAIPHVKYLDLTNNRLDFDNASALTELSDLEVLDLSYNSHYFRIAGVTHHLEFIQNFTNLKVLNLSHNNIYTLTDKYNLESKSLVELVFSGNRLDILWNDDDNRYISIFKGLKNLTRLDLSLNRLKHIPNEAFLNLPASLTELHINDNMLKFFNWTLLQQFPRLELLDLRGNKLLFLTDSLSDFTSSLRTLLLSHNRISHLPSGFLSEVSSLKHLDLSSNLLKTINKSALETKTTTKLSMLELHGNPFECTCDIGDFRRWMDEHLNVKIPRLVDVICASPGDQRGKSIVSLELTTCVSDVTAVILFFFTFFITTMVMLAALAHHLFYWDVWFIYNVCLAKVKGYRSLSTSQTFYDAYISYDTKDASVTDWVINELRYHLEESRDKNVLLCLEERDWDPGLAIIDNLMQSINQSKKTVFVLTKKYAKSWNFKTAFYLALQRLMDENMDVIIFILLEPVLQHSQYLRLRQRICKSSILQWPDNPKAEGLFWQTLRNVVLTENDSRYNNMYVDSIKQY
Method: as §1, §2

human TLR9 = molecular target: T3, human TLR9 (Homo sapiens, UniProt Q9NR96); assay: TLR9 inhibition reporter assay (HEK-Blue cells, SEAP reporter, ODN2006 stimulation); conditions: HEK-Blue cells overexpressing human TLR9, SEAP reporter, ODN2006 5 nM
T3 construct: host or cells: HEK-Blue cells
T3 sequence (Q9NR96 26-1032): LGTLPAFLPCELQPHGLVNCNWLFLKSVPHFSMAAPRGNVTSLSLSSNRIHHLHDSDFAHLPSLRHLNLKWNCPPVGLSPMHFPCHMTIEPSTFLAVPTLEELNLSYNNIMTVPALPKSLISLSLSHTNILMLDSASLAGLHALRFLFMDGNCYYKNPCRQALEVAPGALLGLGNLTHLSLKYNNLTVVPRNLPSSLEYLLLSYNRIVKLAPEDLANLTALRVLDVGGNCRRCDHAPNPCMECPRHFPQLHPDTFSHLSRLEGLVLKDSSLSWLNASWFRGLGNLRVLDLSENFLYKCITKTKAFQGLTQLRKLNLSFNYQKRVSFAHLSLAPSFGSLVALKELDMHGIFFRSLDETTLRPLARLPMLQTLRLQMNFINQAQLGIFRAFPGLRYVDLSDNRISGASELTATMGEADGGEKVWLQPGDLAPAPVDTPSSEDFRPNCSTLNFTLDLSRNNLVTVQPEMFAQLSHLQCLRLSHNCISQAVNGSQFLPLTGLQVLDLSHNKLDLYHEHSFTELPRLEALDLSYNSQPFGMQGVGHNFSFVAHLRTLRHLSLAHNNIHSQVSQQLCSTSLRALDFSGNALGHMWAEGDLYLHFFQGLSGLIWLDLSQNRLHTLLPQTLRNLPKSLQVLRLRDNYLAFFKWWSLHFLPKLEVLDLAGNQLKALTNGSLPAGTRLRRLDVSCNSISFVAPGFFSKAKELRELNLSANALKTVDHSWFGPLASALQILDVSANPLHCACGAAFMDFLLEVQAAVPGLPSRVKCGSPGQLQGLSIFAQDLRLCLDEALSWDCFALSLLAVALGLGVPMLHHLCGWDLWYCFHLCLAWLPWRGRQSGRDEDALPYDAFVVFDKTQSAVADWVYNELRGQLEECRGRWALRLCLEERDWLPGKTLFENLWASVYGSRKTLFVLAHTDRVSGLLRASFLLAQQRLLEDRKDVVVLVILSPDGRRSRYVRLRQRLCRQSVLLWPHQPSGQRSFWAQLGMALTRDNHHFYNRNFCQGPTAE
Method: as §1, §2

IC50 (human TLR7) [nM]	IC50 (human TLR8) [nM]	IC50 (human TLR9) [nM]	Compound
1520	134	1250	CCc1c(-c2ccnc(C)c2)[nH]c2ccc(CNC(=O)N3CCN(C)CC3)cc12 [Example 448]
1	2.6	4100	Cc1c(-c2[nH]c3ccc(C4CCC(N(C)C)CC4)cc3c2C(C)C)cn2ncnc2c1C (stereo not drawn) [Example 111]
1	2.7	3880	COc1cc(-c2[nH]c3ccc(C4CN(C5COC5)C4)cc3c2C(C)C)cn2ncnc12 [Example 274]
8	11	2200	COc1ccc(-c2[nH]c3ccc(C4CCC(N)CC4)cc3c2C(C)C)cc1OC (stereo not drawn) [Example 450]
15	12	699	Cc1cc(-c2[nH]c3ccc(C4CN(C(C)C)CCO4)cc3c2C(C)C)cc(C)n1 (stereo not drawn) [Example 303]
4	1.1	22300	Cc1c(-c2[nH]c3ccc(C4CC(NC5COC5)C4)cc3c2C(C)C)cn2ncnc2c1C (stereo not drawn) [Example 575]
5	24	7020	Cc1cc(-c2[nH]c3ccc(C4CCC(N(C)CC(=O)N(C)C)CC4)cc3c2C(C)C)cn2ncnc12 (single isomer, unassigned) [Example 177, 2-((4-(3-isopropyl-2-(8-methyl-[1,2,4]triazolo[1,5-a]pyridin-6-yl)-1H-indol-5-yl)cyclohexyl)(methyl)amino)-N,N-dimethylacetamide]
28	31	48300	Cc1cc(-c2[nH]c3ccc(C4CN(CCS(C)(=O)=O)CCO4)cc3c2C(C)C)cc(C)n1 (stereo not drawn) [Example 351]
0.5	0.72	2140	COCCN(C)C1CCC(c2ccc3[nH]c(-c4cn5ncnc5c(C)c4C)c(C(C)C)c3c2)CC1 (single isomer, unassigned) [Example 153, 4-(2-(7,8-dimethyl-[1,2,4]triazolo[1,5-a]pyridin-6-yl)-3-isopropyl-1H-indol-5-yl)-N-(2-methoxyethyl)-N-methylcyclohexanamine]
1	4.4	2000	COc1cc(-c2[nH]c3ccc(C4CCC(N(C)C(C)C)CC4)cc3c2C(C)C)cn2ncnc12 (single isomer, unassigned) [Example 7, N-isopropyl-4-(3-isopropyl-2-(8-methoxy-[1,2,4]triazolo[1,5-a]pyridin-6-yl)-1H-indol-5-yl)-N-methylcyclohexanamine]
0.68	2.7	4410	COc1cc(-c2[nH]c3ccc(C4CCC(N5CCNC(=O)C5)CC4)cc3c2C(C)C)cn2ncnc12 (stereo not drawn) [Example 71]
189	50	646	Cc1cc(-c2[nH]c3ccc([C@H]4C[C@H]4C(=O)NC4CCC5CNCC54)cc3c2C(C)C)ccn1 (stereo partly drawn) [Example 457]
2	2.6	5220	Cc1c(-c2[nH]c3ccc(C4CCC(NC5COC5)CC4)cc3c2C(C)C)cn2ncnc2c1C (single isomer, unassigned) [Example 86]
0.76	2.1	2010	COc1cc(-c2[nH]c3ccc(C4CCCN(CC(C)(C)O)C4)cc3c2C(C)C)cn2ncnc12 (stereo not drawn) [Example 248, 1-(3-(3-isopropyl-2-(8-methoxy-[1,2,4]triazolo[1,5-a]pyridin-6-yl)-1H-indol-5-yl)piperidin-1-yl)-2-methylpropan-2-ol]
0.1	0.84	1510	Cc1cc(-c2[nH]c3ccc(C4CCC(NC5(C)COC5)CC4)cc3c2C(C)C)cn2ncnc12 (single isomer, unassigned) [Example 46]
4	3.6	280	Cc1cc(-c2[nH]c3ccc(C4CCCNC4)cc3c2C(C)C)cc(C)n1 (stereo not drawn) [Example 186]
20	26	> 50000	Cc1cc(-c2[nH]c3ccc(C4CN(CC5(C)COC5)CCO4)cc3c2C(C)C)cn2ncnc12 (stereo not drawn) [Example 291]
75	28	19400	Cc1cc(-c2[nH]c3ccc(C4CN(CC(=O)N(C)C)CCO4)cc3c2C(C)C)cc(C)n1 (stereo not drawn) [Example 326]
3	13	707	Cc1c(-c2[nH]c3ccc(C4CCC(N)CC4)cc3c2C(C)C)cn2cnnc2c1C (stereo not drawn) [Example 516]

From patent US11878975B2, “Substituted indole compounds useful as TLR inhibitors” (BRISTOL-MYERS SQUIBB COMPANY, priority 2017, dated 2024)
